ChEMBL document CHEMBL1130916, “Design and synthesis of conformationally-constrained MMP inhibitors” (Bioorg Med Chem Lett, 1998)

Columns and labels:
Stromelysin-1 = Stromelysin-1 (Homo sapiens, UniProt P08254); assay: Inhibition of matrix metalloprotease-3 (MMP-3)
Interstitial collagenase = target: T1, Interstitial collagenase (Homo sapiens, UniProt P03956); assay: Inhibition of matrix metalloprotease-1 (MMP-1)
T1 sequence (P03956 whole entry): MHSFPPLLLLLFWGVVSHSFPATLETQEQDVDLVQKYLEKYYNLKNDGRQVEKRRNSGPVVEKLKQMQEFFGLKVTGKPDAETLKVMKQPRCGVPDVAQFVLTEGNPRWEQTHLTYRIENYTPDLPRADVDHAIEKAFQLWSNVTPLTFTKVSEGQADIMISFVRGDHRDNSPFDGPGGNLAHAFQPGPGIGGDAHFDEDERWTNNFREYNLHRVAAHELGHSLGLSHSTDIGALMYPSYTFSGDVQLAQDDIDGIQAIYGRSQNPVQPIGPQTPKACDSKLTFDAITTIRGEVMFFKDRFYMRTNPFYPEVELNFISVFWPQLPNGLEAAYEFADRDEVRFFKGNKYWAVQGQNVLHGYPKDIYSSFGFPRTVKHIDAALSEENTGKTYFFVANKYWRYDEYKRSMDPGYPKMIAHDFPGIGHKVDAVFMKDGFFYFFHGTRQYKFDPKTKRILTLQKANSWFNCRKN

Chain of Stromelysin-1 (P08254 whole entry): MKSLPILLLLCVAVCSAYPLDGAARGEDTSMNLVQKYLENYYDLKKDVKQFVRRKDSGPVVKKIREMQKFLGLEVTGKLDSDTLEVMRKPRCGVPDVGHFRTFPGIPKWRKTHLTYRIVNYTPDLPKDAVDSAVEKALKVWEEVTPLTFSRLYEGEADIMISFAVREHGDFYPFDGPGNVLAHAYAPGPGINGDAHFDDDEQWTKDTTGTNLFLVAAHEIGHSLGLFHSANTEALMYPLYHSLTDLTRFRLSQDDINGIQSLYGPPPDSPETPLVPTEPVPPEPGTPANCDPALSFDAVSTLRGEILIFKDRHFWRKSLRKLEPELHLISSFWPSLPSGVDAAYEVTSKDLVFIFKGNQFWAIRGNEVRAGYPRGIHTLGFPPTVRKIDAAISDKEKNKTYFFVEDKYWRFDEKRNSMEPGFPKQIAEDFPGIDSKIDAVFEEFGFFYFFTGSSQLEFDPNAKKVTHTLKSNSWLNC

| SMILES | IC50 (Stromelysin-1) [nM] | IC50 (Interstitial collagenase) [nM] |
| --- | --- | --- |
| CCCCCCCC[C@H](CC(=O)NO)C(=O)N[C@H]1CCCCN(CC(=O)OC)C1=O | 1040 | 11 |
| CCC[C@@H](C(=O)NO)[C@@H](CC(C)C)C(=O)N[C@H]1CCCCN(CCOC)C1=O | 94 | 83 |
| CCCCCCCC[C@@H](C(=O)N[C@H]1CCCCN(CC(=O)OC)C1=O)[C@@H](C)C(=O)NO | 21 | 57 |
| COC(=O)CN1CCCC[C@H](NC(=O)[C@H](CC(C)C)[C@@H](C)C(=O)NO)C1=O | 215 | 49 |
| CCCCC[C@H](CC(=O)NO)C(=O)N[C@H]1CCCCN(CC(=O)OC)C1=O | 824 | 129 |
| CCC[C@@H](C(=O)NO)[C@@H](CC(C)C)C(=O)N[C@H]1CCCCN(CC(=O)OC)C1=O | 58 | 96 |
| COC(=O)CN1CCCC[C@H](NC(=O)[C@@H](CC(=O)NO)CC(C)C)C1=O | 2900 | 225 |
| CC(C)C[C@H](CC(=O)NO)C(=O)N[C@H]1CCCCN(CCOc2ccccc2)C1=O | 518 | 117 |
| CC(C)C[C@H](CC(=O)NO)C(=O)N[C@H]1CCCCNC1=O | 11700 | 3900 |
| CCCCCCCC[C@H](CC(=O)NO)C(=O)N[C@H]1CCCCN(CCOC)C1=O | 250 | 1890 |
| CC(C)C[C@H](CC(=O)NO)C(=O)N[C@H]1CCCCN(CCCOc2ccccc2)C1=O | 1420 | 140 |
| CCCCCCCC[C@@H](C(=O)N[C@H]1CCCCN(CCOC)C1=O)[C@@H](C)C(=O)NO | 30 | 112 |
| COCCN1CCCC[C@H](NC(=O)[C@H](CC(C)C)[C@@H](CCCO)C(=O)NO)C1=O |  | 51 |
| CCCCCCCCC(C(=O)N[C@H]1CCCCN(CCOC)C1=O)C(C)C(=O)NO (single isomer, unassigned) | 108 | 4360 |
